In US20100087388A1, “ODCASE INHIBITORS AS ANTI-VIRALS AND ANTIBIOTICS” (priority 2005, published 2010):

What was measured:
[1] = tested on: human primary blood cells
[2] = target: T1, Staphylococcus aureus ODCase (Staphylococcus aureus, UniProt Q6GHN1); assay: ODCase enzyme inhibition assay; type: biochemical; details: read-out: K1 against Staphylococcus aureus ODCase
T1 construct: made in house; host or cells: E. coli BL21(DE3), pET24a(+)
Excerpt: ODCase gene, pyrF, was obtained from the complete genomes of the respective bacteria through ATCC. The pyrF gene was amplified from the genome of S. aureus M252 using two synthetic primers: Dir 5′-[…] [SEQ ID NO: 1] and Rev 5′-[…] [SEQ ID NO: 2].
The pET expression system was used to express ODCase from pyrF. The cloning strategy can use any generic strategies, herein a double digestion of pET24a(+) expression vector and pyrF separately using EcoRI and HindIII restriction enzyme was used to produce digestion products with sticky ends. […] The digested vector was separated from the restriction enzyme by gel purification by QIAquick Gel Extraction Kit Protocol using microcentrifuge and quantified on 1% agarose gel with 2-log ladder as standard. In addition to quantifying DNA, 1% agarose gel was run with undigested vector to confirm that the vector was digested.
pyrF from the PCR mixture was also double digested in 50 uL solution using the same conditions described above. The separation of the pyrF from restriction enzymes was carried out by QIAquick Gel Extraction Kit Protocol using Microcentrifuge, and the collected gene was quantified on 1% agarose gel. […]

T1 sequence (Q6GHN1 whole entry): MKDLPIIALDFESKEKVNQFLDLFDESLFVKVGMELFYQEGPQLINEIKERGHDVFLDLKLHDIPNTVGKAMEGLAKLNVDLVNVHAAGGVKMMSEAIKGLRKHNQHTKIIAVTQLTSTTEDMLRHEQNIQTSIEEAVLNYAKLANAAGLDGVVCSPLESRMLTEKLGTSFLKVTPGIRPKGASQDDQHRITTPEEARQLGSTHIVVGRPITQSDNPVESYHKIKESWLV

With `O=c1cc(I)n([C@@H]2O[C@H](CO)[C@@H](O)[C@H]2O)c(=O)[nH]1` [Ia, 6-Iodo-uridine] the “Effect on human primary blood cells (indications of toxicity)” value [1] was “did not inhibit primary cells significantly”.
In the case of `O=c1cc(I)n([C@@H]2O[C@H](COP(=O)(O)O)[C@@H](O)[C@H]2O)c(=O)[nH]1` [Ib, 6-Iodo uridine-5′-O-monophosphate], the Ki [2] is reported as < 50 nM.
